Data set [1] can be described thus: In vitro plasma half-life of drug. In kind it is in vitro ADME, SD rats. As to conditions: SD rat plasma, 37° C. The protocol: Preparation of plasma: after the SD rats were fasted and kept with water for 12 h, blood was collected through orbital venous plexus. The freshly collected blood was added into a centrifuge tube containing heparin sodium and centrifuged at 5000 rpm for 10 min at 4° C. The supernatant was slowly pipetted and subpackaged. Finally, the collected SD rat plasma was sealed, marked, and stored at −20° C. for later use.
Preparation of target compound sample: the target compound was precisely weighed by an analytical balance and prepared into a stock solution at a concentration of 2 mg/mL (solvent: Vacetone:VTween 80:Vnormal saline=1:1:3) for later use.
Determination of in vitro half-life of target compound sample: 20 μL of test compound stock solution and 80 μL of rat plasma were mixed uniformly. Nine parallel ep tubes were taken, marked as corresponding test tubes of 0 min, 1 min, 2 min, 3 min, 5 min, 10 min, 15 min, 20 min, and 30 min, respectively, and placed in a water bath at 37° C. for incubation for 0 min, 1 min, 2 min, 3 min, 5 min, 10 min, 15 min, 20 min, and 30 min, respectively. 50 μL of mixed solution were taken from the corresponding ep tube at each time point, and […] of acetonitrile was added for precipitating protein. The mixture was vortexed for 10 min using a mixer and centrifuged at 12000 rpm for 15 min. Then, the supernatant was centrifuged at 12000 rpm for 10 min. The optimal detection method for the target compound in the MRM mode was determined using Intellistat software in UPLC-MS/MS, the peak area of the corresponding mass spectrum was integrated, and the plasma half-life of the compound was calculated.

The target of data set [2] is voltage-gated potassium channel hERG (Homo sapiens (Human), UniProt Q12809). As to the kind of experiment: Predictor hERG fluorescence polarization assay. In kind it is binding. As to conditions: hERG channel, fluorescence polarization, 8 concentrations; read-out: IC50. The protocol:
In this experiment, IC50 was calculated by detecting the effect of compounds at 8 concentrations on the […]. The procedures were performed exactly as for Predictor™ hERG fluorescence polarization assay kit. Before measuring fluorescence polarization, the assay plate was covered to protect the reagents from light and evaporation, and after incubation at room temperature for 2-4 h, the sample plate was centrifuged to read the fluorescence polarization value, with the excitation light at 540 nm and the emission light at 573 nm.

The test system of data set [3] is SD rats. As to the kind of experiment: Test for drug-induced disappearance of righting reflex in rats. In kind it is in vivo. The following applies: single rapid bolus via tail vein. The method, boiled down:
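Male SD rats (200-280 g) were randomly grouped and given a single rapid bolus dose via the tail vein. Latency to loss of righting reflex and its duration were recorded.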

The test system of the next data set is hCMEC/D3 cells. As to the kind of experiment: Rate of drug passing through in vitro blood-brain barrier (Transwell). In kind it is in vitro ADME. The following applies: hCMEC/D3 monolayer, compound 0.1 mg/mL. A digest of the protocol: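 Confluent hCMEC/D3 monolayers grown 10 days on Transwell inserts (5.0 μm pores). Compound at 0.1 mg/mL added to the lower chamber; upper-chamber concentration measured after 5 min, with permeability expressed as upper/lower concentration ×100%.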

Data set [4] concerns GABA-activated Cl− current (GABAA receptor) in HEK 293T cells. Briefly: Effect of drugs on GABA-activated current in cells by cell patch clamp. In kind it is cell-based. As to conditions: −60 mV. The method, boiled down: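 Whole-cell patch clamp of HEK 293T cells held at −60 mV; compound applied together with 2 μM GABA in extracellular buffer (140 mM NaCl, HEPES, pH 7.4). Enhancement of GABA-evoked Cl− current recorded in the same cell, reported as maximal enhancement (Emax) and corresponding concentration.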
For orientation: In patch-clamp work, channel activity is measured electrically.

Data set [5] deals with SD rats. As to the kind of experiment: Induction of anesthesia in rats by continuous infusion of drug for 20 min. In kind it is in vivo. As to conditions: initial dose 20 mg/kg bolus, maintenance dose 0.2 (mg/kg)/min for 20 min, after infusion completed. The protocol:
SD rats (male, 200-280 g) were randomly grouped and subjected to administration of an initial dose by rapid bolus via the tail vein, followed by a continuous infusion with a maintenance dose for 20 min.
After the infusion was completed, the duration of the righting reflex and the time from wake-up to recovery in rats were recorded.

Another data set deals with KM mice. Briefly: Test for drug-induced disappearance of righting reflex in mice. In kind it is in vivo. The following applies: 30 mg/kg, single rapid bolus via tail vein. A digest of the protocol: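 Female KM mice (18–25 g), randomly grouped, given a single rapid bolus via tail vein. Latency (administration to loss of righting reflex) and duration (loss to recovery) recorded.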

voltage-gated potassium channel hERG, sequence (Q12809 whole entry, looked up): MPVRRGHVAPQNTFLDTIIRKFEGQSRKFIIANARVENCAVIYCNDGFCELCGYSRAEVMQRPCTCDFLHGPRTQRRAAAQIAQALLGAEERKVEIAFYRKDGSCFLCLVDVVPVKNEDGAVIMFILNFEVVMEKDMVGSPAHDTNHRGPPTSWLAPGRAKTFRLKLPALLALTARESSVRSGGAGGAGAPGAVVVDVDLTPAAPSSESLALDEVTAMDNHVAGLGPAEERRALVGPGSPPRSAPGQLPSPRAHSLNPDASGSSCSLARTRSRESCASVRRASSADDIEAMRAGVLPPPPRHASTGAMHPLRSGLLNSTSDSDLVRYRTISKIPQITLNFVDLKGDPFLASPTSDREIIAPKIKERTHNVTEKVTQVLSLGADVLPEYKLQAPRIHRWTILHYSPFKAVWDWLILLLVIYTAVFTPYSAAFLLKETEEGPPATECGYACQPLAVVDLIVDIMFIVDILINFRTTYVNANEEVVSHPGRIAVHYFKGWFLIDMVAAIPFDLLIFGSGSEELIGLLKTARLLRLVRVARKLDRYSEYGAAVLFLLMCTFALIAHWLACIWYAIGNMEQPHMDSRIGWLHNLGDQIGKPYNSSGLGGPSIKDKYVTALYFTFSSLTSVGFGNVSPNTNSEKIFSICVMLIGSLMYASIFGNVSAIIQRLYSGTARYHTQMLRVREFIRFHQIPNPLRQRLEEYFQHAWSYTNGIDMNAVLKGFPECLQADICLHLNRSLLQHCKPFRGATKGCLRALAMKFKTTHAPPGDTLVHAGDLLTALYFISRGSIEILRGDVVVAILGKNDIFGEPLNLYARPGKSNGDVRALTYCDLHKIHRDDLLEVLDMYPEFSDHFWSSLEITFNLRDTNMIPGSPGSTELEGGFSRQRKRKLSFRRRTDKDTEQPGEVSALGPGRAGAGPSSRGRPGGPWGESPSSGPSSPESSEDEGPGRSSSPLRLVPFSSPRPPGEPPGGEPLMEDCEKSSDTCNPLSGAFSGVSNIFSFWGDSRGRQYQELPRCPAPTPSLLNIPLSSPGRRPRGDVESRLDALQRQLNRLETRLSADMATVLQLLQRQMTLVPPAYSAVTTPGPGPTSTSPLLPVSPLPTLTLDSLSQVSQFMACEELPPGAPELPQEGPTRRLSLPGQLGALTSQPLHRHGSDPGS

A word on the IC50: it is the concentration needed to halve the response being measured. As a reminder, the EC50 is the concentration needed to bring the measured effect to its halfway point. Turning to `COC(=O)CC[C@H]1N=C(c2ccccc2Cl)c2cc(Cl)ccc2-n2c(SCCN3CCC(O)CC3)nnc21` [Compound 135, methyl (S)-3-(8-chloro-6-(2-chlorophenyl)-1-(2-((4-hydroxypiperidin-1-yl)ethyl)thio)-4H-benzo[f][1,2,4]triazolo[4,3-a][1,4]diazepin-4-yl)propionate], the “In vitro plasma half-life” value in data set [1] was determined as 0.33 min. In data set [2], the IC50 was 31.9 µM. For the same compound, in the data set with SD rats [3], the Duration amounted to 16.64 min and the Latency came to 0.14 min. Further, the “In vitro blood-brain barrier, compound permeability at 5 min” value with hCMEC/D3 cells was 80.2%. Also, the EC50 in data set [4] (2 μM GABA, read-out: Positive enhancement EC50 (μM) for 2 μM GABA-induced current) came to 0.75 µM. For the same compound, the “Enhancement percentage Emax for 2 μM GABA current (within 3-30 μM)” value in data set [4] (corresponding concentration 20 μM) is 263% (20 μM). Besides, in the data set with SD rats [5], the Duration of anesthesia amounted to 7.24 min and the “Time from wake-up to recovery” value is listed as 13.6 min. In the data set with KM mice, this compound came in with a Duration of 10.64 min and a Latency of 0.22 min.

The record behind these values is patent publication US20230416258A1, “BENZ[…], AND PREPARATION METHOD THEREFOR AND USE THEREOF” (CHINA PHARMACEUTICAL UNIVERSITY, priority 2020, published 2023).
